Test results from patent publication US12668646B2, “Cross-linking compounds and methods of use thereof” (North Carolina State University, priority 2019, dated 2026).
Values joined by “and” are separate entries in the source; they are usually repeats but may differ in a detail not shown here. Identical values can stand only once. Each block holds one compound with its values, some of them ahead of it.

Legend:
[1] = test system: β-glucosidase from almonds; assay: Indigogenic reaction with β-glucosidase from almonds; format: biochemical
tritosomes = assay: Indigoid dye formation with tritosomes; format: biochemical
Experimental: The results from the glucosidase survey prompted several further experiments. First, a parallel set of studies was carried out with inclusion of several oxidants commonly employed in histochemical studies, given that the indigoid dye forming process requires the presence of an oxidant. […] The activity of the β-glucosidase was affected only slightly in the presence of a non-ionic detergent. To verify that the results observed in Table 1 were reliable, a 5-mg scale reaction of 33 was carried out to isolate indigo 43, which was obtained in 66% yield (Scheme 7). The 66% isolated yield corresponded well with the enzymatic yield of […] (Table 1, entry 15).
General methods. β-Glucosidase from almonds (lyophilized powder, ≥2 units/mg solid) and peroxidase from horseradish were purchased from Sigma-Aldrich. β-Glucosidase from Agrobacterium sp. (recombinant, suspension in 3.2 M (NH4)2SO4) was purchased from Megazyme; the concentration in solution was determined by absorption spectroscopy with E^0.1%=2.20 cm^−1 at 280 nm.^37 Tritosomes were purchased from XenoTech. Rat liver homogenate was purchased from MP Biomedicals.

β-glucosidase = assay: Treatment of F-9 with β-glucosidase; format: biochemical; details: result in words
Experimental: Triazine-based A2BC architectures. Cyanuric chloride (F-8) was treated with 2 equiv of F-7 followed by tyramine to afford F-9 in 56% yield (Scheme 17). […] Treatment of N-(6-hydroxyhexyl)maleimide (F-10) (K. A. Keller, et al., Tetrahedron Lett., 2005, 46, 1181-1184. “A Thermally-Cleavable Linker for Solid-Phase Synthesis”) with cyanuric chloride (F-8) followed by F-9 in the presence of bases gave F-11 in 77% yield. […] While F-9 and F-11 were attractive from a synthetic standpoint given the ability to derivatize the 5-hydroxy group of the indoxyl unit without protection of the four hydroxy groups of the glucosyl unit, the reaction with a β-glucosidase was sine qua non in the molecular design. Accordingly, we moved to the design of a more suitable architecture.

[2] = molecular target: T1, β-glucosidase from Agrobacterium (Agrobacterium sp., UniProt P12614); assay: Indigogenic reaction with β-glucosidase from Agrobacterium; format: biochemical; details: for Yield (%) β-glucosidase from Agrobacterium: as E4 but ϵ = 2.6 × 10^4 M^−1 cm^−1 measured for 43; for Yield of indigoid dye: 33 100 μM, enzyme 200 nM
T1 construct: purchased Megazyme
T1 sequence (P12614 1-459): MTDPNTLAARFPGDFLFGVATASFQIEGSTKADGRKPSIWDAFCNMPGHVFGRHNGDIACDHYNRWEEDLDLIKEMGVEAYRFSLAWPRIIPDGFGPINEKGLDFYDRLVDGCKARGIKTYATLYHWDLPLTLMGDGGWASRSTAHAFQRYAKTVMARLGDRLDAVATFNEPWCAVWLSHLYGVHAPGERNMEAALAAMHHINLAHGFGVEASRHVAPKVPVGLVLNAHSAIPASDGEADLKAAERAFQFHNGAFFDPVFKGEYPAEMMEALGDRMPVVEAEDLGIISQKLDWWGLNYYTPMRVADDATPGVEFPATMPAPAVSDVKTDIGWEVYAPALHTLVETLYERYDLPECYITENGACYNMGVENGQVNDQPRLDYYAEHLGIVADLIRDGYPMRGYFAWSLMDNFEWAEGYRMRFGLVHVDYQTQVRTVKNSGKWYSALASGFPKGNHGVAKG
Experimental: Next, the β-glucosidase from Agrobacterium sp. was investigated as the trigger enzyme for indigoid dye formation. […] The reaction was carried out using the enzyme (200 nM) and indoxyl-glucoside 33 (100 μM) in phosphate buffer (pH 4-9, containing 2% DMF) at 37° C. […] Note that with 200 nM enzyme and 100 μM substrate, complete reaction requires 500 turnovers of each enzyme.
Reactions with β-glucosidase from Agrobacterium. An indoxyl compound in DMF (2 μL, 5 mM) and β-glucosidase from Agrobacterium in 10 mM phosphate buffer [2 μL, 10 μM, pH 7.0, containing 50 mM NaCl and 0.6 M (NH4)2SO4] were mixed with 50 mM phosphate buffer (96 μL, pH 7.0). The reaction mixture was incubated at 37° C. for 2 h and then centrifuged for 3 min. Any precipitate was separated from the supernatant and dissolved in DMF (200 μL). The resulting solution was analyzed by absorption spectroscopy. The experiment was repeated three times.

[3] = Solubility in aqueous buffer; format: physicochemical; details: 100 mM phosphate buffer (pH 7.4, containing 100 mM NaCl), room temperature
Description: Water solubility of the indoxyl glucoside is important for biological applications. […] Therefore, this compound is not suitable for bioconjugation. The synthesis of 34 relies on successive substitution of the dichloroanilinotriazine unit (derived from N,N-bis(2-methoxyethyl)aniline^31 and cyanuric chloride) with indoxyl-glucoside-PEG-OH and BCN-PEG-NH2 building blocks.
To improve the water solubility of the indoxyl species, a sulfobetaine unit^32,33 was incorporated as a water-solubilizing group. Sulfobetaines are stable zwitterions over a wide range of pH. Synthesis of an indoxyl bearing a sulfobetaine unit is illustrated in Scheme 6. Boc-piperazine (35) was treated with 1,3-propane sultone to afford 36 in 63% yield. Quaternization of the tertiary nitrogen atom in 36 with 3-bromopropanol gave Boc-protected sulfobetaine 37 in 69% yield. The Boc group was cleaved with trifluoroacetic acid (TFA) to afford piperazine-TFA salt 38 in 97% yield. The N-acetyl group of 32 was selectively deprotected with NaHCO3/MeOH in 84% yield. The product 39, piperazine-TFA salt 38, and BCN-amine 14 were assembled at a triazine ring via one-flask, successive substitution of cyanuric chloride to afford 40 in 51% yield. Cleavage of the acetyl groups of sulfobetaine 40 provided 41 in 98% yield.

rat liver homogenate = assay: Indigoid-dye formation in rat liver homogenate; format: biochemical; details: as E7 but ϵ = 2.6 × 10^4 M^−1 cm^−1 measured for 43
Experimental: Finally, indigoid-dye formation was carried out in rat liver homogenate (Table 1, rightmost column).
Reactions in rat liver homogenate. An indoxyl compound in DMF (5 μL, 20 mM) was mixed with rat liver homogenate (95 μL). The reaction mixture was incubated at 37° C. for 24 h. After allowing to cool to room temperature, the reaction mixture was diluted with DMF (900 μL). The mixture was heated at 70° C. for 2 min and then centrifuged for 2 min. The supernatant was separated from any precipitate. This extraction procedure was repeated two or three times with DMF (100-500 μL). The combined supernatant (1500-1800 μL) was analyzed by absorption spectroscopy.

[4] = molecular target: T2, β-glucosidase from Agrobacterium plus rat liver homogenate (Agrobacterium sp., UniProt P12614); assay: Reaction with β-glucosidase from Agrobacterium in rat liver homogenate; format: biochemical; details: 33 100 μM, enzyme 200 nM, 2% DMF, 37° C., 4 h; ϵ = 2.6 × 10^4 M^−1 cm^−1
T2 construct: purchased Megazyme
T2 sequence (P12614 1-459): T1 sequence (P12614 1-459)
Experimental: Finally, indigoid-dye formation was carried out in rat liver homogenate (Table 1, rightmost column). Good yields were obtained in the case of 42 (65%, entry 4) and 27 (50%, entry 13). […] However, when β-glucosidase from Agrobacterium (200 nM) was present in rat liver homogenate, the indigoid dye was obtained in 81% yield (entry 15).
Reaction of 33 with β-glucosidase from Agrobacterium in rat liver homogenate. A DMF solution of 33 (2 μL, 5 mM) and β-glucosidase from Agrobacterium in 10 mM phosphate buffer [2 μL, 10 μM, pH 7.0, containing 50 mM NaCl and 0.6 M (NH4)2SO4] were mixed with rat liver homogenate (96 μL). The reaction mixture was incubated at 37° C. for 4 h and then centrifuged for 3 min. Any precipitate was separated from the supernatant and then suspended in DMF (200 μL). The suspension was centrifuged for 3 min. The supernatant was analyzed by absorption spectroscopy.

Yield (%) β-glucosidase from almonds ([1]; indoxyl 1 mM, enzyme 1 unit/mL, 0.01M acetate buffer pH 5, 5% DMF, 37° C., 16-19 h, ϵ = 1.27 × 10^4 M^−1 cm^−1 measured for 4): <1%
Structure (SMILES): COc1nc(Oc2ccc3[nH]cc(O[C@@H]4O[C@H](CO)[C@@H](O)[C@H](O)[C@H]4O)c3c2)nc(N2CCOCC2)n1 [Compound 19, 5-[(4-Methoxy-6-morpholino-1,3,5-triazin-2-yl)oxy]-1H-indole-3-yl β-D-glucopyranoside]
Indigoid dye formation with tritosomes (tritosomes; result in words): low yield

Structure (SMILES): OC[C@H]1O[C@@H](Oc2c[nH]c3ccc(Oc4nc(NCCc5ccc(O)cc5)nc(Oc5ccc6[nH]cc(O[C@@H]7O[C@H](CO)[C@@H](O)[C@H](O)[C@H]7O)c6c5)n4)cc23)[C@H](O)[C@@H](O)[C@@H]1O [Compound F-9, 2,4-Bis[3-(β-D-glucopyranosyloxy)-1H-indol-5-yloxy]-6-[2-(4-hydroxyphenyl)ethylamino]-1,3,5-triazine]
Yield of indigoid dye with tritosomes (tritosomes): ca. 4% | Indigoid dye formation upon treatment with β-glucosidase (β-glucosidase): did not form the corresponding indigoid dye

Structure (SMILES): O=C(NCCOCCOCCNc1nc(OCCOCCOCCOc2c(Br)cc3[nH]cc(O[C@@H]4O[C@H](CO)[C@@H](O)[C@H](O)[C@H]4O)c3c2Br)nc(N2CC[N+](CCCO)(CCCS(=O)(=O)[O-])CC2)n1)OC[C@@H]1[C@@H]2CCC#CCC[C@@H]21 [Compound 41]
Yield (%) β-glucosidase from Agrobacterium [2]: 106% and 106 ± 4^g % | solubility [3]: > 400 µM

Structure (SMILES): OCCOCCOCCOc1c(Br)cc2[nH]cc(O[C@@H]3O[C@H](CO)[C@@H](O)[C@H](O)[C@H]3O)c2c1Br [Compound 33, 4,6-Dibromo-5-[1-hydroxy-3,6,9-trioxanon-9-yl]-1H-indol-3-yl β-D-glucopyranoside]
Isolated yield of indigo 43 ([1]; 5-mg scale reaction of 33, acetate buffer pH 5.0, 37° C., 22 h): 66% | Yield (%) β-glucosidase from almonds ([1]; as E1 but ϵ = 2.6 × 10^4 M^−1 cm^−1 measured for 43): 52% and 52^g % | Yield of indigoid dye ([2]; pH 6-9, 3 h, in words): High to quantitative yields | Yield of indigoid dye ([2]; phosphate buffer pH 4, 3 h): 6% | Yield of indigoid dye ([2]; phosphate buffer pH 5, 3 h): 38% | Yield (%) β-glucosidase from Agrobacterium [2]: 99% | Yield (%) rat liver homogenate (rat liver homogenate): < 5% | Yield (%) β-glucosidase from Agrobacterium plus rat liver homogenate [4]: 81%
